Experiment: in vitro
Conditions: human, hek293t cells
Procedure: Mammalian cytotoxicity measurement was performed using Cell Titer-Glo 2.0 Cell Viability Assay (Promega, G9243) according to the manufacturer protocol. In brief, mammalian cells were seeded into 384-well white plates (Greiner, 781080) and incubated at 37°C for one day. Compounds from the Cys-Library were dispensed into the assay plate using epMotion 96. The plates were then incubated at 37°C for two days. An equal volume of Cell Titer-Glo 2.0 reagent was added into each well of the assay plate using epMotion 96 and incubated at 22°C for 10 min, followed by luminescence measurement using a Cytation 5 plate reader (BioTek).

SMILES: C=CC(=O)Nc1ccc(C)cc1S(=O)(=O)N1CCOCC1 [1-O13, N-[4-methyl-2-(morpholine-4-sulfonyl)phenyl]prop-2-enamide]
- viability at 48 h, 25 µM: 74.9%

SMILES: C=CC(=O)NCc1nnc(C(F)(F)F)s1 [1-O14, N-{[5-(trifluoromethyl)-1,3,4-thiadiazol-2-yl]methyl}prop-2-enamide]
- viability at 48 h, 25 µM: 131%

SMILES: C=CC(=O)NC1(c2ccccc2)CCCC1 [1-O15, N-(1-phenylcyclopentyl)prop-2-enamide]
- viability at 48 h, 25 µM: 95.6%

SMILES: C=CC(=O)NCC1CCS(=O)(=O)C1(C)C (centres unmarked) [1-O16, N-[(2,2-dimethyl-1,1-dioxo-1lambda6-thiolan-3-yl)methyl]prop-2-enamide]
- viability at 48 h, 25 µM: 103%

SMILES: C=CC(=O)N(Cc1ccccc1)C1CCOc2ccc(OC)cc21 (centres unmarked) [1-O17, N-benzyl-N-(6-methoxy-3,4-dihydro-2H-1-benzopyran-4-yl)prop-2-enamide]
- viability at 48 h, 25 µM: 71.6%

SMILES: C=CC(=O)NCc1ccnn1CC(F)(F)F [1-O18, N-{[1-(2,2,2-trifluoroethyl)-1H-pyrazol-5-yl]methyl}prop-2-enamide]
- viability at 48 h, 25 µM: 168%

SMILES: C=CC(=O)NC[C@@H]1C[C@H]1C1CCCCC1 [1-O19, N-{[(1R,2S)-2-cyclohexylcyclopropyl]methyl}prop-2-enamide]
- viability at 48 h, 25 µM: 106%

SMILES: C=CC(=O)Nc1ccc(C(F)C(F)(F)F)cc1 (centres unmarked) [1-O20, N-[4-(1,2,2,2-tetrafluoroethyl)phenyl]prop-2-enamide]
- viability at 48 h, 25 µM: 85.4%

SMILES: C=CC(=O)N1CCC(c2nc(C(=O)O)cs2)CC1 [1-O21, 2-[1-(prop-2-enoyl)piperidin-4-yl]-1,3-thiazole-4-carboxylic acid]
- viability at 48 h, 25 µM: 96.9%

SMILES: C=CC(=O)NC(C1CCC1)C1CCOC1 (centres unmarked) [1-O22, N-[cyclobutyl(oxolan-3-yl)methyl]prop-2-enamide]
- viability at 48 h, 25 µM: 113%

SMILES: C=CC(=O)N1CCc2cc(C(N)=O)ccc21 [1-P03, 1-(prop-2-enoyl)-2,3-dihydro-1H-indole-5-carboxamide]
- viability at 48 h, 25 µM: 172%

SMILES: C=CC(=O)N(Cc1ccccc1)Cc1ccccc1 [1-P04, N,N-dibenzylprop-2-enamide]
- viability at 48 h, 25 µM: 60.4%

SMILES: C=CC(=O)NC1CCC(c2nc(-c3ccccc3)n[nH]2)CC1 (centres unmarked) [1-P05, N-[4-(3-phenyl-1H-1,2,4-triazol-5-yl)cyclohexyl]prop-2-enamide]
- viability at 48 h, 25 µM: 104%

SMILES: C=CC(=O)Nc1ccc(C(N)=O)cc1C [1-P06, 3-methyl-4-(prop-2-enamido)benzamide]
- viability at 48 h, 25 µM: 84.8%

SMILES: C=CC(=O)N[C@H]1CCCC[C@H]1n1cc(C(C)(C)O)nn1 [1-P07, N-[(1S,2R)-2-[4-(2-hydroxypropan-2-yl)-1H-1,2,3-triazol-1-yl]cyclohexyl]prop-2-enamide]
- viability at 48 h, 25 µM: 128%

SMILES: C=CC(=O)NCC1(OC)CCC(C)CC1 (centres unmarked) [1-P08, N-[(1-methoxy-4-methylcyclohexyl)methyl]prop-2-enamide]
- viability at 48 h, 25 µM: 80.5%

SMILES: C=CC(=O)N(Cc1cn(C)nc1-c1ccc(F)cc1)C1CC(C)C1 (centres unmarked) [1-P09, N-{[3-(4-fluorophenyl)-1-methyl-1H-pyrazol-4-yl]methyl}-N-(3-methylcyclobutyl)prop-2-enamide]
- viability at 48 h, 25 µM: 64.1%

SMILES: C=CC(=O)NCC(C)c1ncc(C)s1 (centres unmarked) [1-P10, N-[2-(5-methyl-1,3-thiazol-2-yl)propyl]prop-2-enamide]
- viability at 48 h, 25 µM: 43.9%

SMILES: C=CC(=O)N1CCN(C(=O)c2ccco2)CC1 [1-P11, 1-[4-(furan-2-carbonyl)piperazin-1-yl]prop-2-en-1-one]
- viability at 48 h, 25 µM: 88.3%

SMILES: C=CC(=O)Nc1onc(C2CCCCC2)c1CC(C)C [1-P12, N-[3-cyclohexyl-4-(2-methylpropyl)-1,2-oxazol-5-yl]prop-2-enamide]
- viability at 48 h, 25 µM: 0.308%

SMILES: C=CC(=O)N(Cc1cn(C)nc1C)c1ccc2c(c1)OCCO2 [1-P13, N-(2,3-dihydro-1,4-benzodioxin-6-yl)-N-[(1,3-dimethyl-1H-pyrazol-4-yl)methyl]prop-2-enamide]
- viability at 48 h, 25 µM: 81.5%

SMILES: C=CC(=O)Nc1ncc(-c2cccc(C)c2)s1 [1-P14, N-[5-(3-methylphenyl)-1,3-thiazol-2-yl]prop-2-enamide]
- viability at 48 h, 25 µM: 63.6%

SMILES: C=CC(=O)N(Cc1cc(C)c2ncccc2c1)C(C)C1CCCO1 (centres unmarked) [1-P15, N-[(8-methylquinolin-6-yl)methyl]-N-[1-(oxolan-2-yl)ethyl]prop-2-enamide]
- viability at 48 h, 25 µM: 93.5%

SMILES: C=CC(=O)N1CCn2nccc21 [1-P16, 1-{1H,2H,3H-pyrazolo[1,5-a]imidazol-1-yl}prop-2-en-1-one]
- viability at 48 h, 25 µM: 56.6%

SMILES: C=CC(=O)N1CSCC1C(=O)NCC1CC1 (centres unmarked) [1-P17, N-(cyclopropylmethyl)-3-(prop-2-enoyl)-1,3-thiazolidine-4-carboxamide]
- viability at 48 h, 25 µM: 105%

SMILES: C=CC(=O)N1CC(OCc2nc(C)no2)C1 [1-P18, 1-{3-[(3-methyl-1,2,4-oxadiazol-5-yl)methoxy]azetidin-1-yl}prop-2-en-1-one]
- viability at 48 h, 25 µM: 67.7%

SMILES: C=CC(=O)NCc1ccc(N2CCCC(C(N)=O)C2)cc1 (centres unmarked) [1-P19, 1-{4-[(prop-2-enamido)methyl]phenyl}piperidine-3-carboxamide]
- viability at 48 h, 25 µM: 126%

SMILES: C=CC(=O)N1CCOC(c2ccccc2Cl)C1 (centres unmarked) [1-P20, 1-[2-(2-chlorophenyl)morpholin-4-yl]prop-2-en-1-one]
- viability at 48 h, 25 µM: 72.7%

SMILES: C=CC(=O)NCCC1=CCCCCC1 [1-P21, N-[2-(cyclohept-1-en-1-yl)ethyl]prop-2-enamide]
- viability at 48 h, 25 µM: 93.5%

SMILES: C=CC(=O)N1CCCC(C2CCN(C(=O)c3cc(C)nn3C)CC2)C1 (centres unmarked) [1-P22, 1-[1'-(1,3-dimethyl-1H-pyrazole-5-carbonyl)-[3,4'-bipiperidin]-1-yl]prop-2-en-1-one]
- viability at 48 h, 25 µM: 55.9%

SMILES: C=CC(=O)NCCn1nnnc1C [2-A03, N-[2-(5-methyl-1H-1,2,3,4-tetrazol-1-yl)ethyl]prop-2-enamide]
- viability at 48 h, 25 µM: 110%

SMILES: C=CC(=O)Nc1ccnc(OC2CCCCC2)c1 [2-A04, N-[2-(cyclohexyloxy)pyridin-4-yl]prop-2-enamide]
- viability at 48 h, 25 µM: 0.76%

SMILES: C=CC(=O)NC(C)c1cnc(C(F)(F)F)s1 (centres unmarked) [2-A05, N-{1-[2-(trifluoromethyl)-1,3-thiazol-5-yl]ethyl}prop-2-enamide]
- viability at 48 h, 25 µM: 73.5%

SMILES: C=CC(=O)N1CCC(Cc2nc(C3CCC3)no2)CC1 [2-A06, 1-{4-[(3-cyclobutyl-1,2,4-oxadiazol-5-yl)methyl]piperidin-1-yl}prop-2-en-1-one]
- viability at 48 h, 25 µM: 93%

SMILES: C=CC(=O)N(Cc1c2c(nn1C)CCOC2)c1cc(C)cc(C)c1 [2-A07, N-(3,5-dimethylphenyl)-N-({2-methyl-2H,4H,6H,7H-pyrano[4,3-c]pyrazol-3-yl}methyl)prop-2-enamide]
- viability at 48 h, 25 µM: 57.4%

SMILES: C=CC(=O)N1CCC(C(=O)Nc2ncc(CCO)s2)CC1 [2-A08, N-[5-(2-hydroxyethyl)-1,3-thiazol-2-yl]-1-(prop-2-enoyl)piperidine-4-carboxamide]
- viability at 48 h, 25 µM: 79.1%

SMILES: C=CC(=O)NCCN(C)S(=O)(=O)c1cccs1 [2-A09, N-[2-(N-methylthiophene-2-sulfonamido)ethyl]prop-2-enamide]
- viability at 48 h, 25 µM: 129%

SMILES: C=CC(=O)NC(c1ccc(C)cc1)C(C)S(C)(=O)=O (centres unmarked) [2-A10, N-[2-methanesulfonyl-1-(4-methylphenyl)propyl]prop-2-enamide]
- viability at 48 h, 25 µM: 100%

SMILES: C=CC(=O)NCC1(c2nc(-c3ccccc3)cs2)CCOCC1 [2-A11, N-{[4-(4-phenyl-1,3-thiazol-2-yl)oxan-4-yl]methyl}prop-2-enamide]
- viability at 48 h, 25 µM: 93.1%

SMILES: C=CC(=O)NCc1ccc(C(=O)N2CCC(NC(C)=O)CC2)cc1 [2-A12, N-{[4-(4-acetamidopiperidine-1-carbonyl)phenyl]methyl}prop-2-enamide]
- viability at 48 h, 25 µM: 90.5%

SMILES: C=CC(=O)N(Cc1c(F)cc(C)cc1Cl)C1CCCOCC1 (centres unmarked) [2-A13, N-[(2-chloro-6-fluoro-4-methylphenyl)methyl]-N-(oxepan-4-yl)prop-2-enamide]
- viability at 48 h, 25 µM: 99%

SMILES: C=CC(=O)NCCc1ccc(S(C)(=O)=O)cc1 [2-A14, N-[2-(4-methanesulfonylphenyl)ethyl]prop-2-enamide]
- viability at 48 h, 25 µM: 93.7%

SMILES: C=CC(=O)N1CC[C@H](Oc2ccc(F)cc2)C1 [2-A15, 1-[(3S)-3-(4-fluorophenoxy)pyrrolidin-1-yl]prop-2-en-1-one]
- viability at 48 h, 25 µM: 185%

SMILES: C=CC(=O)N1CC(S(=O)(=O)N2CCOCC2)C1 [2-A16, 1-[3-(morpholine-4-sulfonyl)azetidin-1-yl]prop-2-en-1-one]
- viability at 48 h, 25 µM: 74%

SMILES: C=CC(=O)Nc1cc(C)n(CC(C)c2nnc3n2CCCCC3)n1 (centres unmarked) [2-A17, N-[5-methyl-1-(2-{5H,6H,7H,8H,9H-[1,2,4]triazolo[4,3-a]azepin-3-yl}propyl)-1H-pyrazol-3-yl]prop-2-enamide]
- viability at 48 h, 25 µM: 175%

SMILES: C=CC(=O)NC1CC2CCC(C1)N2S(C)(=O)=O (centres unmarked) [2-A18, N-{8-methanesulfonyl-8-azabicyclo[3.2.1]octan-3-yl}prop-2-enamide]
- viability at 48 h, 25 µM: 93.8%

SMILES: C=CC(=O)NCc1nc(C2CC2)cs1 [2-A19, N-[(4-cyclopropyl-1,3-thiazol-2-yl)methyl]prop-2-enamide]
- viability at 48 h, 25 µM: 103%

SMILES: C=CC(=O)N1CCC(n2ccc(C)n2)CC1 [2-A21, 1-[4-(3-methyl-1H-pyrazol-1-yl)piperidin-1-yl]prop-2-en-1-one]
- viability at 48 h, 25 µM: 139%

SMILES: C=CC(=O)N(c1cc(C)ccc1C#N)C(C)C [2-A22, N-(2-cyano-5-methylphenyl)-N-(propan-2-yl)prop-2-enamide]
- viability at 48 h, 25 µM: 111%

SMILES: C=CC(=O)NCc1ccc(-n2ccc(C3CC3)n2)cc1 [2-B03, N-{[4-(3-cyclopropyl-1H-pyrazol-1-yl)phenyl]methyl}prop-2-enamide]
- viability at 48 h, 25 µM: 85.9%

SMILES: C=CC(=O)N1CCC(C(=O)NCCC2(O)CCCOC2)CC1 (centres unmarked) [2-B04, N-[2-(3-hydroxyoxan-3-yl)ethyl]-1-(prop-2-enoyl)piperidine-4-carboxamide]
- viability at 48 h, 25 µM: 70%

SMILES: C=CC(=O)NCC1CCN(C)C1=O (centres unmarked) [2-B05, N-[(1-methyl-2-oxopyrrolidin-3-yl)methyl]prop-2-enamide]
- viability at 48 h, 25 µM: 71.1%

SMILES: C=CC(=O)N1CCC(C(=O)N2CCC(c3ncco3)CC2)CC1 [2-B06, 1-{4-[4-(1,3-oxazol-2-yl)piperidine-1-carbonyl]piperidin-1-yl}prop-2-en-1-one]
- viability at 48 h, 25 µM: 78.3%

Source: article PMC11995724, “Antibiotic target discovery by integrated phenotypic and activity-based profiling of electrophilic fragments” (Cell chemical biology, 2025)
